Measured values from patent publication US7109174B2, “Anticonvulsant derivatives useful for preventing the development of type II diabetes mellitus and syndrome X” (Ortho-McNeil Pharmaceutical, Inc., priority 2000, dated 2006).

System: Female db/db mice
Experiment: Oral glucose tolerance test (fasted) in female db/db mice after 11 days oral dosing
Assay type: in vivo
Details: for Oral Glucose Tolerance Test (fasted) Plasma Glucose: ± sem
Description: Female db/db mice (C57BLK S/J-m^+/^+ Lepr^db Jackson Labs, Bar Harbor, Me.), 7–8 weeks of age, were housed four per cage in solid-bottomed shoe box cages. Room temperature was maintained at 68–72° F. and humidity at 50–65%. Room lighting was on a 12-hour light/12-hour dark cycle. The mice were maintained on NIH Rat and Mouse/Auto 6F reduced fat diet #5K52 (PMI Nutrition Int'l Inc.). Food and water were supplied ad libitum.
Test compound and vehicle were dosed orally and prepared as suspensions in 0.5% hydroxypropylmethylcellulose (Dow Chemical, Midland, Mich.). The dosing volume was 10 mL/kg of body weight.
Different groups of female db/db mice (7–8/group) were orally gavaged daily for 11 days with either 0.5% methylcellulose in dH2O (vehicle), topiramate at 30 or 100 mg/kg/day or 2,3:4,5-bis-O-(1-methylethylidene)-β-L-fructopyranose sulfamate (hereinafter referred to as Compound V) at 30 or 100 mg/kg/day. On day 10, the animals were fasted for 20 hours before being tested for oral glucose tolerance (OGT). On day 11, four hours after the final dose for each group, an oral glucose tolerance test (OGTT) was performed by oral glucose administration of 2 g/kg. Animals were bled through tail clip at 0 (before glucose), 30, 60 and 120 min after glucose challenge. The blood samples were collected into heparinized CB microvettes and then put on ice. The plasma samples will be assayed for plasma glucose determination by using SIGMA DIAGNOSTICS Trinder reagent (Sigma, St. Louis, Mo.). Statistical analysis was performed using the program Instat (Graphpad, Monrovia, Calif.) and performing one-way ANOVA with a Dunnett's multiple comparison test.
Following the above described procedure, the effect of topiramate and compound V on oral glucose tolerance in female db/db mice, 7 mice/group, was determined, with results as listed in Table 9. The abbreviation N represents the number of animals per study group.

Structure (SMILES): CC1(C)O[C@H]2[C@H](CO[C@]3(COS(N)(=O)=O)OC(C)(C)O[C@H]23)O1 [Compound V, 2,3:4,5-bis-O-(1-methylethylidene)-β-L-fructopyranose sulfamate]
- Oral Glucose Tolerance Test (fasted) Plasma Glucose (30 mg/kg/day, 0 min (before glucose 2 g/kg)): 221 ± 22.9 mg/dL
- Oral Glucose Tolerance Test (fasted) Plasma Glucose (30 mg/kg/day, 30 min after glucose 2 g/kg): 441 ± 35.7 mg/dL
- Oral Glucose Tolerance Test (fasted) Plasma Glucose (30 mg/kg/day, 60 min after glucose 2 g/kg): 244 ± 21.6 mg/dL
- Oral Glucose Tolerance Test (fasted) Plasma Glucose (30 mg/kg/day, 120 min after glucose 2 g/kg): 213 ± 28.7 mg/dL
- Oral Glucose Tolerance Test (fasted) Plasma Glucose (100 mg/kg/day, 0 min (before glucose 2 g/kg)): 152 ± 27.3 mg/dL
- Oral Glucose Tolerance Test (fasted) Plasma Glucose (100 mg/kg/day, 30 min after glucose 2 g/kg): 449 ± 42.6 mg/dL
- Oral Glucose Tolerance Test (fasted) Plasma Glucose (100 mg/kg/day, 60 min after glucose 2 g/kg): 319 ± 52.7 mg/dL
- Oral Glucose Tolerance Test (fasted) Plasma Glucose (100 mg/kg/day, 120 min after glucose 2 g/kg): 153 ± 33 mg/dL
- elevated blood glucose levels induced by oral glucose challenge (30 or 100 mg/kg/day): suppressed
- fasting glucose levels (30 or 100 mg/kg/day): decreased
